These results are taken from article PMC11172336, “Exploring Syndecan-4 and MLP and Their Interaction in Primary Cardiomyocytes and H9c2 Cells” (Cells, 2024).

One experiment addresses T1, recombinant 6xHis-MLP-WT (Homo sapiens, UniProt P50461).
T1 construct: All MLP recombinant proteins were full length and had 6xHis tags at the N-terminus; purchased GenScript Biotech Corp
T1 sequence (P50461 1-194): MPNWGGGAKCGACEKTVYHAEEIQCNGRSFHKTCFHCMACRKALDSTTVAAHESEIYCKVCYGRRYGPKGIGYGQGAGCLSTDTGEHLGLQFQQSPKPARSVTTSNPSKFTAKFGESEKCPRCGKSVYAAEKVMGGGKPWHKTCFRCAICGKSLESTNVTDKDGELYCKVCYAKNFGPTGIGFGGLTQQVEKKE
The experiment in a line: Biacore surface plasmon resonance of SDC4cyt and MLP. The settings on record: SPR, biotin-ahx-SDC4cyt immobilized on SA chip, 6xHis-MLP-WT injected, 1:1 Langmuir fit, n = 4. It is filed as binding. Here is the method: A streptavidin (SA) chip (BR1000032, Cytiva, Marlborough, MA, USA) was conditioned with three 1 min injections of 1 × Biacore running buffer (BR100826, Cytiva, Marlborough, MA, USA), and biotinylated SDC4cyt was immobilized at 133–350 resonance units (RUs). Recombinant 6xHis-MLP-WT was dialyzed into 1 × Biacore running buffer, and increasing concentrations were injected over the chip’s surface at a flow rate of 30 µL per minute for 180 s. For the different runs, concentration ranges spanned 2.9–14.6 nM, 1.2–100 nM, and 21.2–500 nM. The dissociation time was set to 600 s. Sensorgrams were analyzed using the Biacore X100 software (Version 2.0.1) with the assumption of 1:1 binding (Langmuir binding model).
The binding of SDC4cyt and MLP was further investigated with surface plasmon resonance (SPR), where a biotinylated SDC4cyt peptide was immobilized on an SA chip, and a serial dilution of recombinant 6xHis-MLP-WT protein was injected over the chip. The results were analyzed by fitting with a 1:1 interaction model (Langmuir). The dissociation equilibrium constant (kD) was 15.6 ± 7.8 nM, with an association constant (ka) of (8.7 ± 1.4) × 10^4 M^−1 s^−1 and a dissociation rate constant (kd) of (12.2 ± 5.3) × 10^−4 s^−1, indicating a strong interaction (Figure 2D). […]

Experiment [1] relates to cytoplasmic domain of syndecan-4 (SDC4cyt). The experiment in a line: ELISA-based assay, wells coated with MLP peptides, overlaid with biotin-SDC4cyt. It counts as binding, human. The following applies: for biotinylated SDC4cyt binding to mutated MLP peptide compared with MLP-WT peptide: 10 µg 30-mer peptide coated, SDC4cyt normalized to SDC4scram, related to MLP-WT (100%), n = 16, Mann-Whitney U; for biotin-SDC4cyt binding to 30 amino acid-long overlapping MLP-WT peptides: 10 µg peptide coated, biotinylated peptide 2-5 µM, 2 h 37 °C, absorbance 450 nm, normalized to SDC4scram, n = 12-28. Here is the method:
(§1) 96-well ELISA microplates were coated with 10 µg of WT or mutated human 6xHis-MLP recombinant proteins or 10 µg of MLP peptides in PBS, and rotated at 4 °C overnight. Each well was rinsed with 0.05% Tween-20 in PBS (PBS-T) and blocked with 0.5% gelatin (G-1890, Sigma Merck, Darmstadt, Germany) for one hour at room temperature before incubation with the given biotinylated peptides at a final concentration of 2–5 µM for two hours at 37 °C with gentle agitation. Each well was then thoroughly washed with PBS-T five times before incubation with 100 µL of Biotin-HRP (A0185, Sigma Merck, Darmstadt, Germany) for 30 min at room temperature with gentle agitation. Each well was then washed with PBS-T 5 times before incubation with 100 µL of Ultra TMB substrate solution (34028, Thermo Fisher Scientific, Waltham, MA, USA) for 15–30 min at room temperature with gentle agitation to develop a blue color signal. The reaction was stopped with 100 µL of 2 M hydrochloric acid (HCl) per well (yellow color development). The absorbance of each well was read at 450 nm (Hidex sense multimodal microplate reader, Åbo, Finland).
We next aimed to identify the syndecan-4-MLP-binding domain(s). […]
Multiple human mutations in MLP are associated with hypertrophic cardiomyopathy (HCM) or dilated cardiomyopathy (DCM) (illustrated in Figure 2E). […] To test whether syndecan-4 binding to MLP was affected by any of the HCM- or DCM-associated mutations, we used an ELISA-based assay, where wells were coated with WT or mutated MLP peptide sequences.
For orientation: An ELISA detects its analyte on a solid surface through an enzyme-linked reagent.

For another experiment, the system named is human MLP. The experiment in a line: Peptide array overlay of MLP 20-mers with biotinylated peptide. It is filed as binding. The following applies: 20-mers with 3 amino acid offset, overlay overnight at 4 °C, n = 3. Here is the method:
Human, rat, and mouse MLP were synthesized as overlapping 20-mers with three amino acid offsets onto cellulose membranes by an automated MultiPep peptide synthesizer (INTAVIS Bioanalytical instruments AG, Tübingen, Germany). After blocking, membranes were incubated with a biotin-ahx-SDC4cyt (SDC4cyt) peptide, a scrambled biotin-ahx-SDC4cyt (SDC4scram), a custom-made MLP antibody (#R06991, GenScript Biotech Corp, Piscataway, NJ, USA), or a commercially available MLP antibody (sc-166930, Santa Cruz, Dallas, TX, USA) overnight at 4 °C. The remaining consequent steps were identical to those performed for immunoblotting, as described further below.
We next aimed to identify the syndecan-4-MLP-binding domain(s). A biotinylated peptide covering the cytoplasmic domain of syndecan-4 (SDC4cyt) was overlaid onto 20’mer overlapping peptides covering the full length of human MLP.

For a further experiment, the system named is recombinant 6xHis-MLP. Nature of the experiment: ELISA-based MLP self-association assay, coated recombinant 6xHis-MLP overlaid with biotinylated MLP-WT peptides. It counts as binding, human. The following applies: 10 µg protein coated; biotinylated peptide 2-5 µM; PBS-only wells subtracted; n = 8. Here is the method:
as §1
To more precisely map the sites of self-association in MLP, an ELISA-based screening method was used. Full-length recombinant 6xHis-MLP-WT protein was coated into wells and overlayed with biotinylated overlapping MLP-WT peptides, together representing the full-length MLP sequence. […] Furthermore, to test whether mutations could affect self-association, wells were instead coated with mutated recombinant 6xHis-MLP proteins and overlayed with the biotinylated MLP-WT peptides, mimicking a heterozygous interaction. Compared to the WT recombinant protein, MLP peptides aa 50–79 and 125–154 bound weaker to most of the mutated MLP recombinant proteins, except for the HCM-associated L44P (at aa 125–154) and C58G mutations (at aa 50–79 and […]) (Figure 5D, left and right panel). A larger increase in N- and C-terminal binding was also observed for C58G.

Where a SMILES comes first, the peptide text is derived from it. Where no end group is shown, it is not given here. The star is where a group is joined. Biotin = O=C1N[C@H]2[C@H](CS[C@H]2CCCCC(=O)*)N1; Ahx = NCCCCCC(=O)O

Regarding `CC[C@H](C)[C@H](NC(=O)[C@@H]1CCCN1C(=O)[C@H](CCCCN)NC(=O)[C@H](CCCCN)NC(=O)CNC(=O)[C@H](CC(C)C)NC(=O)[C@H](CC(=O)O)NC(=O)[C@H](Cc1ccc(O)cc1)NC(=O)[C@H](CO)NC(=O)CNC(=O)[C@H](CCC(=O)O)NC(=O)[C@H](CC(=O)O)NC(=O)[C@H](CCCCN)NC(=O)[C@H](CCCCN)NC(=O)[C@H](CCCCN)NC(=O)[C@H](CCSC)NC(=O)[C@H](CCCNC(=N)N)NC(=O)CCCCCNC(=O)CCCC[C@@H]1SC[C@@H]2NC(=O)N[C@@H]21)C(=O)N[C@@H](Cc1ccc(O)cc1)C(=O)N[C@@H](CCCCN)C(=O)N[C@@H](CCCCN)C(=O)N[C@@H](C)C(=O)N1CCC[C@H]1C(=O)N[C@H](C(=O)N[C@@H](CC(N)=O)C(=O)N[C@@H](CCC(=O)O)C(=O)N[C@@H](Cc1ccccc1)C(=O)N[C@@H](Cc1ccc(O)cc1)C(=O)N[C@@H](C)C(=O)O)[C@@H](C)O` [SDC4cyt] ({Biotin-Ahx}-RMKKKDEGSYDLGKKPIYKKAPTNEFYA-OH), the kon at recombinant 6xHis-MLP-WT (read-out: association constant (ka)) came to 87000 M⁻¹ s⁻¹. The koff on recombinant 6xHis-MLP-WT (read-out: dissociation rate constant (kd)) stood at 0.00122 s⁻¹.
“AAHERGIYCKVCYGRRYGPKGIGYGQGAGC [MLP-S54R,E55G, 30-mer human MLP peptide with S54R,E55G mutation]”: the “biotinylated SDC4cyt binding to mutated MLP peptide compared with MLP-WT peptide” value in experiment [1] is given as “significantly weaker”.
For “AAHESEIYCKVCYGCRYGPKGIGYGQGAGC [MLP-R64C, 30-mer human MLP peptide with R64C mutation]”, the “biotinylated SDC4cyt binding to mutated MLP peptide compared with MLP-WT peptide” value in experiment [1] is recorded as “tendency of reduced binding”.
For the compound “AAHESEIYCKVCYGRRYGPKGIRYGQGAGC [MLP-G72R, 30-mer human MLP peptide with G72R mutation]”, the “biotinylated SDC4cyt binding to mutated MLP peptide compared with MLP-WT peptide” value in experiment [1] is reported as “tendency of reduced binding”.
Take “AAHESEIYCKVCYGRRYGPRGIGYGQGAGC [MLP-K69R, 30-mer human MLP peptide with K69R mutation]”: the “biotinylated SDC4cyt binding to mutated MLP peptide compared with MLP-WT peptide” value in experiment [1] is “tendency of reduced binding”.
Still for that read-out and setting: next, “CNGRSFHKTCFHCMACRKALDRTTVAAHES [MLP-S46R, 30-mer human MLP peptide with S46R mutation]”: “significantly weaker”; “CNGRSFHKTCFHCMACRKAPDSTTVAAHES [MLP-L44P, 30-mer human MLP peptide with L44P mutation]”: “significantly weaker”.
On to “GTKYPKMDRGKLFKYKAKPEDNESAYIK [SDC4scram]”, for which the “binding to 20-mer overlapping human MLP peptides on membrane” value in the experiment with human MLP is recorded as “did not recognize any human MLP sequence”.
Take “MLP-WT peptide aa 25–54: 30 amino acid-long overlapping MLP-WT peptide, amino acids 25–54 (CNGRSFHKTCFHCMACRKALDSTTVAAHES)”: the “biotin-SDC4cyt binding to 30 amino acid-long overlapping MLP-WT peptides” value (from here on “biotin-SDC4cyt binding”) in experiment [1] is reported as “binding was confirmed”.
Take “MLP-WT peptide aa 50–79: 30 amino acid-long overlapping MLP-WT peptide, amino acids 50–79, with or without N-terminal biotin (AAHESEIYCKVCYGRRYGPKGIGYGQGAGC)”: the “biotin-SDC4cyt binding” value in experiment [1] was “binding was confirmed”. In addition, the “binding of biotinylated MLP-WT peptide to full-length recombinant 6xHis-MLP-WT (self-association)” value (shortened to “binding of biotinylated MLP-WT peptide”) with recombinant 6xHis-MLP is reported as “strongest binding”.
The matching figures for “MLP-WT peptide aa 100–129: 30 amino acid-long overlapping MLP-WT peptide, amino acids 100–129, with or without N-terminal biotin (RSVTTSNPSKFTAKFGESEKCPRCGKSVYA)”: “binding was confirmed” and “Minimal binding”.
For “MLP-WT peptide aa 125–154: 30 amino acid-long overlapping MLP-WT peptide, amino acids 125–154, with or without N-terminal biotin”, the “biotin-SDC4cyt binding” value in experiment [1] is listed as “binding was confirmed”. The “binding of biotinylated MLP-WT peptide” value with recombinant 6xHis-MLP is on record as “strongest binding”.
For the compound “MLP-WT peptide aa 165–194: biotinylated 30-mer MLP-WT peptide, amino acids 165–194 (Biotin-ELYCKVCYAKNFGPTGIGFGGLTQQVEKKE; cysteine pairing not given here)”, in the experiment with recombinant 6xHis-MLP, the “binding of biotinylated MLP-WT peptide” value is listed as “Minimal binding”.
As to “MPNRGGGAKCGACEKTVYHAEEIQCNGRSF [MLP-W4R, 30-mer human MLP peptide with W4R mutation]”, the “biotinylated SDC4cyt binding to mutated MLP peptide compared with MLP-WT peptide” value in experiment [1] was “did not alter the binding”.
